In PMC2844711 (The Journal of neuroscience : the official journal of the …, 2010) one finds EC50 data, which are given here for 1 molecule.

This assay concerns the target GluA4 (Rattus norvegicus, UniProt P19493, L505Y/L672V). Nature of the assay: whole-cell patch clamp in tsA201 cells, agonist dose-response. It counts as cell-based. For orientation: Patch clamp records ionic current or voltage across a cell membrane.

As usually defined, the EC50 is the concentration that produces a half-maximal response. A higher EC50 goes with a less potent agent.

The structures appear in SMILES notation.

Chain of GluA4 (P19493 21-902 L505Y/L672V): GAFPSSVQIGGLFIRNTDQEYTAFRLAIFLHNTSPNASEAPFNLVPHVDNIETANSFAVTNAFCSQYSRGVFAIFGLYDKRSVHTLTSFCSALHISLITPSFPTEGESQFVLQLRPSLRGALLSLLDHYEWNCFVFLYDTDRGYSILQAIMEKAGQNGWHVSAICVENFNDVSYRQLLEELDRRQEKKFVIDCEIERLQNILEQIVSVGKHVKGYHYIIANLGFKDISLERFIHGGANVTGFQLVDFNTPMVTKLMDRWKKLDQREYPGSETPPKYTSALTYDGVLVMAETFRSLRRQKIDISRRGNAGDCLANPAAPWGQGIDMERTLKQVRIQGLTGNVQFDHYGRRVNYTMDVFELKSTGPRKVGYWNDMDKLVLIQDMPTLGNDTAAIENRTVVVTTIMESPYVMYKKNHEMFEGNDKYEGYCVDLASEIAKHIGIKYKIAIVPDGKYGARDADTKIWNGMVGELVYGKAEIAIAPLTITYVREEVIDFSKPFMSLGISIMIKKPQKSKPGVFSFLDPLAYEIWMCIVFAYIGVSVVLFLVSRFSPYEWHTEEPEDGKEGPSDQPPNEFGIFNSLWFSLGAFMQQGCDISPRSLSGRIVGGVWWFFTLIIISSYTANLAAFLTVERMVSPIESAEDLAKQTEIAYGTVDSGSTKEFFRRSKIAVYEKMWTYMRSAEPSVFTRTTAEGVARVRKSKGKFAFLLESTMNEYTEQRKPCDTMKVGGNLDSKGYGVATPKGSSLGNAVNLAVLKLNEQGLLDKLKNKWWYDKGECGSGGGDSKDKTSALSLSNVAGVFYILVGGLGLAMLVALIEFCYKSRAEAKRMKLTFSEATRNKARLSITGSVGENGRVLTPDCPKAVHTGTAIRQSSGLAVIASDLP

In turn, `C=C(C)[C@H]1CN[C@H](C(=O)O)[C@H]1CC(=O)O` [KA, kainate] returned an EC50 of 324 ± 35 µM.
